Results as given in patent US4021421A, “Benzodiazepine derivatives” (Richter Gedeon Vegyeszeti Gyar Rt., priority 1974, dated 1977).

Tests used:
hexobarbital oxidase = assay: in vivo hexobarbital oxidase activity: hexobarbital sleeping time in rats (enzyme induction); set-up: species or system male Wistar rats; details: 40 mg./kg. oral; for Difference % (period of sleep vs. control): 24 hours, vs. control group, difference greater than 25% regarded as biologically significant; for Period of sleep, min. ± standard error: hexobarbital sodium 40 mg./kg. i.v. 24 hours later, control 28.50 ± 3.12 min.
Protocol: The enzyme-inducing effects of the new compounds were examined under in vivo conditions by determining the hexobarbital oxidase activity. The active agents of the formula (I) were administered to male Wistar rats weighing 50 to 60 g. in oral dosages of 40 mg./kg. The effect appears 24 hours after the administration of the enzyme-inducing substance. At that time the inactivation rate of hexobarbital was determined by administering intravenously 40 mg./kg. of hexobarbital sodium into the animals and measuring the time elapsed between the administration and the reappearance of the righting reflex. The period of sleep observed for the animals treated with the new compounds was compared to that observed in the control group (the animals belonging to the control group were treated with carrier substance only).
24 Hours after the administration of the enzyme-inducing compounds the in vivo inactivation of hexobarbital accelerates, which is evidenced by the shortening of the period of sleep. The results were expressed as percentage differences with respect to the controls. On the basis of the preliminary experiments a difference greater than 25% was regarded to be biologically significant.

hexobarbital = assay: biological half life-time of hexobarbital (UV spectrophotometry of plasma); details: half-life of hexobarbital in treated rats, control 38 min.

Structure (SMILES)	Difference % (period of sleep vs. control) (hexobarbital oxidase) [%]	Period of sleep, min. ± standard error (hexobarbital oxidase) [min]	T1/2 (biological half life-time of hexobarbital) (hexobarbital) [min.]
CN1C(=O)CN(N)C(c2ccccc2)c2cc(Cl)ccc21 (stereo not drawn) [Example 3, 1-Methyl-4-amino-5-phenyl-7-chloro-1,3,4,5-tetrahydro-2H-1,4-benzodiazepine-2-one]	-35	18.57 ± 2.06	
CC(=O)NN1CC(=O)N(C)c2ccc(Cl)cc2C1c1ccccc1 (stereo not drawn) [Example 13, 1-Methyl-4-acetylamino-5-phenyl-7-chloro-1,3,4,5-tetrahydro-2H-1,4-benzodiazepine-2-one]	-29	20.24 ± 2.17	
CN1C(=O)CN(N=Cc2ccccc2)C(c2ccccc2)c2cc(Cl)ccc21 (stereo not drawn) [Example 5, 1-Methyl-4-benzalamino-5-phenyl-7-chloro-1,3,4,5-tetrahydro-2H-1,4-benzodiazepine-2-one]	-58	11.96 ± 1.38	26
CN1C(=O)CN(N=O)C(c2ccccc2)c2cc(Cl)ccc21 (stereo not drawn) [Example 1, 1-Methyl-4-nitroso-5-phenyl-7-chloro-1,3,4,5-tetrahydro-2H-1,4-benzodiazepine-2-one]	-42	16.53 ± 1.93	
CN1C(=O)CN(N=Cc2ccc(O)cc2)C(c2ccccc2)c2cc(Cl)ccc21 (stereo not drawn) [Example 10, 1-Methyl-4-(p-hydroxy-benzalamino)-5-phenyl-7-chloro-1,3,4,5-tetrahydro-2H-1,4-benzodiazepine-2-one]	-41	16.82 ± 1.84	
CN1C(=O)CN(NC(=O)CCl)C(c2ccccc2)c2cc(Cl)ccc21 (stereo not drawn) [Example 12, 1-Methyl-4-chloroacetamino-5-phenyl-7-chloro-1,3,4,5-tetrahydro-2H-1,4-benzodiazepine-2-one]	-33	19.10 ± 2.28	
O=NN1CC(=O)Nc2ccc([N+](=O)[O-])cc2C1c1ccccc1 (stereo not drawn) [Example 2, 4-Nitroso-5-phenyl-7-nitro-1,3,4,5-tetrahydro-2H-1,4-benzodiazepine-2-one]	-51	13.97 ± 2.10	
